System: 521955-158-R7-J2-PDC spheroids, viability % test/control
Test: Anticancer human tumor 521955-158-R7-J2-PDC patient-derived pancreatic carcinoma cell line growth inhibition [TAK]
Conditions: spheroids with HUVEC and MSC; for IC50: curve of first compound; for viability, T/C: stronger effect = lower value; active = viability on the fitted dose curve at most 10% of control; inactive = the rest
Text: Combinatorial screen of targeted agents with TAK-243 and ipatasertib in multi-cell type tumor spheroids
A high-throughput screen of multi-cell type tumor spheroids was designed to identify active combinations of targeted small molecules and TAK-243 or ipatasertib. Complex spheroids include a stromal component modeled by human endothelial cells (HUVEC) and fibroblasts modeled by human mesenchymal stem cells (MSCs). The concentration ranges selected for each drug and investigational agent were based upon clinically achievable concentrations if the clinical Cmax of the agent was known.
Compounds. The drugs and investigational agents: TAK-243 (785004), ipatasertib (767898), everolimus (733504), selumetinib (741078), bortezomib (756655), trametinib (758246), ixazomib (758254), vemurafenib (761431), dabrafenib (764134), sapanisertib (764658), alpelisib (765974), and copanlisib (816437), were obtained from the National Cancer Institute (NCI) Developmental Therapeutics Program Chemical Repository. The FDA-approved anticancer drug set is available from the NCI Developmental Therapeutics Program. […] The stock solutions were prepared in dimethyl sulfoxide (DMSO, Sigma-Aldrich, St. Louis, MO, cat. D2650) at 800-fold the tested concentration and stored at -70 degrees C prior to their use. All drugs and investigational agents were tested over a range starting from a high concentration at or near the clinical Cmax and decreasing in half-log increments. If the clinical Cmax for an agent had not been determined, the highest concentration tested was 10 microM.
NCI60 Cell Culture. NCI60 cell lines were obtained from the NCI Developmental Therapeutics Program Tumor Repository. For each lot of cells, the Repository performed Applied Biosystems AmpFLSTR Identifiler testing with PCR amplification to confirm consistency with the published Identifier STR profile for each cell line. Cells were kept in continuous culture for no more than 20 passages. The optimal seeding densities for each of the cell lines at each time point assessed were determined prior to performing the concentration response studies. Briefly, the NCI60 human tumor lines were grown as monolayers in RPMI 1640 medium supplemented with 10% FBS and 2 mmol/L L-glutamine.
An additional 2 lines were from the NCI60 cell line panel including melanomas, MALME-3M and SK-MEL-2. Pooled donor human umbilical vein endothelial cells (HUVEC, Lonza, cat. CC-2519) and human mesenchymal stem cells (hMSC, Lonza, cat. PT-2501) were purchased from Lonza (Walkersville, MD).
PDMR cell lines were grown in complete medium (DC medium): Dulbecco's modified Eagle's medium (DMEM)/F12 supplemented with 5% fetal bovine serum (FBS), 2 mM L-glutamine, 100 U/mL penicillin and 100 µg/ml streptomycin, 0.4 µg/ml hydrocortisone, 10 ng/ml epidermal growth factor (EGF) recombinant human protein, 24 µg/mL adenine, and 0.1 mg/mL primocin. During culture from frozen stock vials, PDMR cells were cultured in the same medium containing 10 µM Y-27632 (see Table 3). The PDCs were cultured in complete DMEM/F12 media without 10 microM Y-27632 dihydrochloride for at least two passages prior to the screen. The pooled donor HUVEC and hMSC were cultured in endothelial cell growth medium 2 (PromoCell, Heidelberg, Germany, cat. C-22011) and mesenchymal stem cell growth medium 2 (PromoCell, cat. C-28009), respectively. For all experiments, HUVEC and hMSC were used at passages </=5.
For the pre-screen, cell seeding densities were determined from a titration spanning the range from 5,000 to 313 cells per well. The mct-spheroids including 60% malignant cells, 25% HUVEC and 15% MSC dispensed as a mixture into U-bottom Ultra-Low Attachment 384-well plates (Corning, NY)
High-throughput Drug Combination Screening.
Prior to their inoculation into 384-well plates, malignant cells, HUVEC, and hMSC were removed from T flasks using TrypLE express (Thermo Fisher Scientific, cat. 12605036) and harvested by centrifugation for 5 min at 233 x g. […]
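Also: spheroids exposed to compound for 7 days before readout.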

COC1CC2CCC(C)C(O)(O2)C(=O)C(=O)N2CCCCC2C(=O)OC(C(C)CC2CCC(OCCO)C(OC)C2)CC(=O)C(C)C=C(C)C(O)C(OC)C(=O)C(C)CC(C)C=CC=CC=C1C (stereo not given) + CC(C)NCC(C(=O)N1CCN(c2ncnc3c2C(C)CC3O)CC1)c1ccc(Cl)cc1
inactive: viability, T/C (second compound 0.3 µM, first compound 0.000316 µM) 103% | viability, T/C (second compound 0.3 µM, first compound 0.001 µM) 72.1% | viability, T/C (second compound 0.3 µM, first compound 0.00316 µM) 71.6% | viability, T/C (second compound 0.3 µM, first compound 0.01 µM) 102% | viability, T/C (second compound 0.3 µM, first compound 0.0316 µM) 110% | viability, T/C (second compound 0.3 µM, first compound 0.1 µM) 115% | viability, T/C (second compound 0.949 µM, first compound 0.000316 µM) 81.6% | viability, T/C (second compound 0.949 µM, first compound 0.001 µM) 73.5% | viability, T/C (second compound 0.949 µM, first compound 0.00316 µM) 100% | viability, T/C (second compound 0.949 µM, first compound 0.01 µM) 91% | viability, T/C (second compound 0.949 µM, first compound 0.0316 µM) 111% | viability, T/C (second compound 0.949 µM, first compound 0.1 µM) 85.9% | viability, T/C (second compound 3 µM, first compound 0.000316 µM) 84.7% | viability, T/C (second compound 3 µM, first compound 0.001 µM) 89.1% | viability, T/C (second compound 3 µM, first compound 0.00316 µM) 74.7% | viability, T/C (second compound 3 µM, first compound 0.01 µM) 89.5% | viability, T/C (second compound 3 µM, first compound 0.0316 µM) 104% | viability, T/C (second compound 3 µM, first compound 0.1 µM) 93.7% | viability, T/C (second compound 9.49 µM, first compound 0.000316 µM) 86.2% | viability, T/C (second compound 9.49 µM, first compound 0.001 µM) 86.3% | viability, T/C (second compound 9.49 µM, first compound 0.00316 µM) 82.2% | viability, T/C (second compound 9.49 µM, first compound 0.01 µM) 85.8% | viability, T/C (second compound 9.49 µM, first compound 0.0316 µM) 106% | viability, T/C (second compound 9.49 µM, first compound 0.1 µM) 105% | viability, T/C (second compound 30 µM, first compound 0.000316 µM) 90.3% | viability, T/C (second compound 30 µM, first compound 0.001 µM) 108% | viability, T/C (second compound 30 µM, first compound 0.00316 µM) 98.2% | viability, T/C (second compound 30 µM, first compound 0.01 µM) 106% | viability, T/C (second compound 30 µM, first compound 0.0316 µM) 104% | viability, T/C (second compound 30 µM, first compound 0.1 µM) 116%
> 100 nM: IC50 (second compound 0.3 µM) | IC50 (second compound 0.949 µM) | IC50 (second compound 3 µM) | IC50 (second compound 9.49 µM) | IC50 (second compound 30 µM)

Cn1cnc2c(F)c(Nc3ccc(Br)cc3Cl)c(C(=O)NOCCO)cc21 + CC(C)NCC(C(=O)N1CCN(c2ncnc3c2C(C)CC3O)CC1)c1ccc(Cl)cc1
65 nM: IC50 (second compound 0.949 µM)
inactive: viability, T/C (second compound 0.3 µM, first compound 0.00949 µM) 71.3% | viability, T/C (second compound 0.3 µM, first compound 0.03 µM) 61.7% | viability, T/C (second compound 0.3 µM, first compound 0.0949 µM) 45.6% | viability, T/C (second compound 0.3 µM, first compound 0.3 µM) 45.5% | viability, T/C (second compound 0.3 µM, first compound 0.949 µM) 28.2% | viability, T/C (second compound 0.3 µM, first compound 3 µM) 13.9% | viability, T/C (second compound 0.949 µM, first compound 0.00949 µM) 76.7% | viability, T/C (second compound 0.949 µM, first compound 0.03 µM) 55.5% | viability, T/C (second compound 0.949 µM, first compound 0.0949 µM) 46.3% | viability, T/C (second compound 0.949 µM, first compound 0.3 µM) 31.3% | viability, T/C (second compound 0.949 µM, first compound 0.949 µM) 25.5% | viability, T/C (second compound 0.949 µM, first compound 3 µM) 9.79% | viability, T/C (second compound 3 µM, first compound 0.00949 µM) 63.9% | viability, T/C (second compound 3 µM, first compound 0.03 µM) 54.7% | viability, T/C (second compound 3 µM, first compound 0.0949 µM) 32.4% | viability, T/C (second compound 3 µM, first compound 0.3 µM) 31.5% | viability, T/C (second compound 3 µM, first compound 0.949 µM) 23.7% | viability, T/C (second compound 3 µM, first compound 3 µM) 9.02% | viability, T/C (second compound 9.49 µM, first compound 0.00949 µM) 61.8% | viability, T/C (second compound 9.49 µM, first compound 0.03 µM) 40.4% | viability, T/C (second compound 9.49 µM, first compound 0.0949 µM) 34% | viability, T/C (second compound 9.49 µM, first compound 0.3 µM) 27.5% | viability, T/C (second compound 9.49 µM, first compound 0.949 µM) 25.7% | viability, T/C (second compound 9.49 µM, first compound 3 µM) 10.8% | viability, T/C (second compound 30 µM, first compound 0.00949 µM) 56.6% | viability, T/C (second compound 30 µM, first compound 0.03 µM) 43.3% | viability, T/C (second compound 30 µM, first compound 0.0949 µM) 34.6% | viability, T/C (second compound 30 µM, first compound 0.3 µM) 30% | viability, T/C (second compound 30 µM, first compound 0.949 µM) 17.6%
active: viability, T/C (second compound 30 µM, first compound 3 µM) 7.96%
33.9 nM: IC50 (second compound 3 µM)
19.9 nM: IC50 (second compound 9.49 µM)
108 nM: IC50 (second compound 0.3 µM)
17.4 nM: IC50 (second compound 30 µM)
